Test results taken from US20260285877A1, “Macrocyclic EGFR Inhibitor, and Preparation Method Therefor and Pharmaceutical Use Thereof” (Abbisko Therapeutics Co., Ltd., priority 2022, published 2026).
pIC50: −log10 of the molar value.

Legend:
[1] = Pharmacokinetic experiment in mice; assay type: in vivo; details: mouse, plasma; ICR mice, PO 10 mg/kg (IV 2 mg/kg); read-out: Oral F
From the text: The purpose of this trial is to study the pharmacokinetic behavior of some compounds of the present invention, and the administration method is: Single oral administration (PO) to ICR mice. The compounds used in this trial are from the compounds in the specific examples of the present invention and the listed positive compounds. ICR mice male N=9 original source: Shanghai Sippr-Bk Lab Animal Co., Ltd. The compounds are weighed and dissolved in the corresponding solution (10% PG+10% Solutol®+80% pH3 citrate buffer). The mixture is then shaken well and sonicated to prepare a 1 mg/mL stock solution. Nine mice are orally administered at a dose of 10 mg/kg (or IV 2 mg/kg) after an overnight fast. About 90 μL of blood is collected via the submandibular vein per time point, heparin sodium anticoagulant is added, the sample is placed on ice after collection, and plasma is centrifuged within 1 hour (centrifugation conditions: 8,000 rpm, 6 minutes, 2-8° C.). The blood collection timepoints are 0, 0.25, 0.5, 1, 2, 4, 6, 8 and 24 h. The samples are stored in a −20° C. refrigerator. The plasma sample is 40 μL, 160 μL of ice-cold acetonitrile containing internal standard is added, vortexed for 3 minutes, and centrifuged at 11,000 rpm for 5 minutes. 100 μL of the supernatant is taken and added to 100 μL of water, 5 μL of the sample is taken and injected into LC/MS/MS for analysis.

[2] = tested on: Ba/F3 EGFR-L858R-C797S (LC); assay: Cell proliferation assay (CellTiter-Glo), Ba/F3 EGFR-L858R-C797S; assay type: cell-based; details: Mus musculus, BaF3; Ba/F3 EGFR-L858R-C797S cells, 72 hour incubation, CTG
Description: (§1) • (1) Harvest cells in a logarithmic growth phase and count the cells using a platelet counter.
(§2) • (1) Add 10 μL PBS to each well of the TO plate containing cells. • (2) Thaw the CTG reagent and equilibrate the plate to room temperature for 30 minutes. • (3) Add an equal volume of CTG solution to each well. • (4) Lyse cells by shaking on an orbital shaker for 5 minutes. • (5) Leave the plate at room temperature for 20 minutes to stabilize the luminescence signal. • (6) Read the TO fluorescence signal.
(§3) Then add 10 μL of the drug solution concentration to individual wells of the 96-well plate seeded with cells.
(§4) • (1) Thaw the CTG reagent and equilibrate the plate to room temperature for 30 minutes. • (2) Add an equal volume of CTG solution to each well. • (3) Lyse cells by shaking on an orbital shaker for 5 minutes. • (4) Leave the plate at room temperature for 20 minutes to stabilize the fluorescence signal. • (5) Read fluorescence value.
(§5) Analyze the data by using GraphPad Prism 7.0 software, and use Non-linear S-curve regression to fit the dose-response curves, to calculate the IC50 values (in nM).

[3] = tested on: A431 WT; assay: Cell proliferation assay (CellTiter-Glo), A431 WT; assay type: cell-based; details: Homo sapiens, A-431; A431 WT cells, 72 hour incubation, CTG
Description: as §1, §2, §3, §4, §5

[4] = tested on: Ba/F3 EGFR-L858R-T790M-C797S (LTC); assay: Cell proliferation assay (CellTiter-Glo), Ba/F3 EGFR-L858R-T790M-C797S; assay type: cell-based; details: Mus musculus, BaF3; Ba/F3 EGFR-L858R-T790M-C797S cells, 72 hour incubation, CTG
Description: as §1, §2, §3, §4, §5

[5] = phase III FLAURA, compared with first-generation EGFR TKIs; cited from earlier work

CCS(=O)(=O)C[C@H]1CCN(c2nn3c4cc(ncc24)Nc2ccnc(n2)-c2cnn(C)c2OCC2(CCCC2)C3)C1 [Example 35, (S)-3′-(3-((ethylsulfonyl)meth-yl)pyrrolidin-1-yl)-1′-meth-ylspiro(cyclopentane-1,6′-8-oxa-3-aza-4(6,1)-pyrazolo [4,3-c]pyridina-2(2,4)-pyri-midina-1(4,5)-pyrazolacyclo-octaphane)]
bioavailability [1]: 81.5%

CC(=O)N[C@@H]1CCN(c2nn3c4cc(ncc24)Nc2ccnc(n2)-c2cnn(C)c2OCC2(CCCC2)C3)C1 [Example 49]
pIC50 [2]: 7.22
pIC50 [3]: 6.03
pIC50 [4]: 7.53

C=CC(=O)Nc1cc(Nc2nccc(-c3cn(C)c4ccccc34)n2)c(OC)cc1N(C)CCN(C)C [Osimertinib]
overall survival [5]: 38.6 months
progression-free survival [5]: 18.9 months
